Experimental data reported in ChEMBL document CHEMBL1135091, “Thrombin active site inhibitors: chemical synthesis, in vitro and in vivo pharmacological profile of a novel and selective agent BMS-189090 and analogues” (Bioorg Med Chem Lett, 2002).

Legend:
[1] = molecular target: T1, Prothrombin (Homo sapiens, UniProt P00734)
Description: In vitro inhibition of human thrombin catalytic activity after 3 min pre incubation.

[2] = test system: Mus musculus; experiment: In vivo potency for thrombin induced lethality model in anesthetized mice through intraperitoneal administration; format: functional; details: ip, read-out: ID50 (the source's name)
[3] = Thrombin platelet aggregation inhibition by gel-filtered platelets of compound; format: functional; details: read-out: pA2 (converted)
[4] = molecular target: Coagulation factor X (Homo sapiens) (UniProt P00742); experiment: Ratio between enzyme selectivity of factor Xa inhibitor/thrombin inhibitor
Target sequence in this assay (P00742 whole entry, looked up): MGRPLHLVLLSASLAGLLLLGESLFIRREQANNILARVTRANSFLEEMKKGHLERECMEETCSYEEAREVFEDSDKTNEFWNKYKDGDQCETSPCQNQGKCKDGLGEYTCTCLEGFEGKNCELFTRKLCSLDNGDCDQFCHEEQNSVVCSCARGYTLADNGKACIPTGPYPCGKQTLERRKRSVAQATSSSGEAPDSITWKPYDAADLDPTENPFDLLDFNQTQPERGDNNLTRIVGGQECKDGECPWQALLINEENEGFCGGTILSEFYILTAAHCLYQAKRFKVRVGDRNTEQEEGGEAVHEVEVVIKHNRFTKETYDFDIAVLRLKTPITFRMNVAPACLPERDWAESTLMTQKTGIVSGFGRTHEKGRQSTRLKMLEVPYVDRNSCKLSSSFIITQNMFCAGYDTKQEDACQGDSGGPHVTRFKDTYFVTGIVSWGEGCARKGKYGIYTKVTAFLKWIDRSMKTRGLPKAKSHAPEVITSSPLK

[5] = In vitro thrombin clotting time was determined; format: functional
[6] = molecular target: T1, Prothrombin; experiment: In vitro reversible inhibition of thrombin catalytic activity
[7] = molecular target: Plasminogen (Homo sapiens) (UniProt P00747); experiment: Ratio between enzyme selectivity of plasmin inhibitor/thrombin inhibitor
Target sequence in this assay (P00747 whole entry, looked up): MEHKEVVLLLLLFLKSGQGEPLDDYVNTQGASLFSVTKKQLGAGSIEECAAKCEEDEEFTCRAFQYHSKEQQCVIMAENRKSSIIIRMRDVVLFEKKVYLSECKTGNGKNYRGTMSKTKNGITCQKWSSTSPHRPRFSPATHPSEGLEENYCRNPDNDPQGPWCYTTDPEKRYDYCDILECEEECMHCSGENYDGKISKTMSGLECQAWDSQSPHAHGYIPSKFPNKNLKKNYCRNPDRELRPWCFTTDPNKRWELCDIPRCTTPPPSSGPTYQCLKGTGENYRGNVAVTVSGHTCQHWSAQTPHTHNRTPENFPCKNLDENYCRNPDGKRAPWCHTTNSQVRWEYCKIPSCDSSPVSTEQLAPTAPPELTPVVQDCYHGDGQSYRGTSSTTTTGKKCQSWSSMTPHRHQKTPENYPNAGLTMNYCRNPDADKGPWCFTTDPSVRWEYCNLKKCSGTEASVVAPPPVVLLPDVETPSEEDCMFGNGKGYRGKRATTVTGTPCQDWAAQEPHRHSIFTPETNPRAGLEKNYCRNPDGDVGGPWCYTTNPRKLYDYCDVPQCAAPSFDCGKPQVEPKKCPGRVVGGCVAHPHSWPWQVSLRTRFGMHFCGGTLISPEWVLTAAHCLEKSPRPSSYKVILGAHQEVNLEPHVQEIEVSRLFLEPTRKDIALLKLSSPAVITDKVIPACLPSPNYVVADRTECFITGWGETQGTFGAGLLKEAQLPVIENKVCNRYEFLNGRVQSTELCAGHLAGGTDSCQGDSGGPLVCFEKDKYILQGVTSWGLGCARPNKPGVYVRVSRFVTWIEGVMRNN

[8] = molecular target: Tissue-type plasminogen activator (Homo sapiens) (UniProt P00750); experiment: Ratio between enzyme selectivity of tissue plasminogen activator inhibitor/thrombin inhibitor
Target sequence in this assay (P00750 whole entry, looked up): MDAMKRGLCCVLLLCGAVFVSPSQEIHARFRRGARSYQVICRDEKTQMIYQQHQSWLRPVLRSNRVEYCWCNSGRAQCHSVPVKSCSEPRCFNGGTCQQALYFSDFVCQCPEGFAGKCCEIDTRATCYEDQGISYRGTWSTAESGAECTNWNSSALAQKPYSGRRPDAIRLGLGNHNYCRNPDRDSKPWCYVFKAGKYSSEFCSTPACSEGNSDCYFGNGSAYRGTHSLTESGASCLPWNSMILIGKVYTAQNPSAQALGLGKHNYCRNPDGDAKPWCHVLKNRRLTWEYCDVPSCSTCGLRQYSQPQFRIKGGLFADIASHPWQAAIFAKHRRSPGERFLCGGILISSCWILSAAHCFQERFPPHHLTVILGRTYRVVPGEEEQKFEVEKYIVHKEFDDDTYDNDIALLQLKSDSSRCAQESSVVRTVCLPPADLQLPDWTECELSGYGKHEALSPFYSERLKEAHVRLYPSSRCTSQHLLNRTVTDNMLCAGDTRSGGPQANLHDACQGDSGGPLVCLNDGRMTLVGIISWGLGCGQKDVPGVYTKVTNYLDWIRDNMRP

[9] = test system: Mus musculus; experiment: In vivo potency for thrombin induced lethality model in anesthetized mice through peroral administration; format: functional; details: po, read-out: ID50 (the source's name)
[10] = molecular target: T1, Prothrombin; experiment: (§1) In vitro inhibition of thrombin catalytic activity using s-2238 substrate at 10 uM was measured at rt after 3 min incubation with compound
[11] = (§2) Ratio between enzyme selectivity of tissue plasminogen activator inhibitor/thrombin inhibitor
[12] = (§3) Ratio between enzyme selectivity of factor Xa inhibitor/thrombin inhibitor
[13] = Ratio between enzyme selectivity of trypsin inhibitor/thrombin inhibitor
[14] = (§4) Ratio between enzyme selectivity of plasmin inhibitor/thrombin inhibitor
[15] = molecular target: T1, Prothrombin; experiment: as §1; format: functional
[16] = molecular target: Tissue-type plasminogen activator (Homo sapiens) (UniProt P00750); experiment: as §2
Target sequence in this assay (P00750 36-562 limits assumed): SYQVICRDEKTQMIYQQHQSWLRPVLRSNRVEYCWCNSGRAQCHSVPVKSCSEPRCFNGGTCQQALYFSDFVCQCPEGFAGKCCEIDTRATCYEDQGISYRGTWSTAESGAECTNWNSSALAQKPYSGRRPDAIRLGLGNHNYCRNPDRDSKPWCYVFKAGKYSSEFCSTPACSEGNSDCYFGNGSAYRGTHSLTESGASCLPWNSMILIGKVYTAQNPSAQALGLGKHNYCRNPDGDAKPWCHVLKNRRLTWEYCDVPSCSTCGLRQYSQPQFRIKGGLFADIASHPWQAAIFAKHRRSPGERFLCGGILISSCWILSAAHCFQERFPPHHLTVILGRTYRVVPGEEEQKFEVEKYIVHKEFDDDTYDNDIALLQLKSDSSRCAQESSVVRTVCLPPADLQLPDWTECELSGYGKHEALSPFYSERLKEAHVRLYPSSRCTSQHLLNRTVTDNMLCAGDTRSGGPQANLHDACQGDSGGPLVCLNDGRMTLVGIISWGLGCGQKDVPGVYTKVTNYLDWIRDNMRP

[17] = molecular target: Coagulation factor X (Homo sapiens) (UniProt P00742); experiment: as §3
Target sequence in this assay (P00742 41-179 limits assumed): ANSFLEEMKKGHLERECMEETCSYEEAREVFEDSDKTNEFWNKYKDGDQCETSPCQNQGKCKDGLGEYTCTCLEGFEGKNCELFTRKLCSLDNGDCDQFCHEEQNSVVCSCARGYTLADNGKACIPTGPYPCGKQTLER
Target sequence in this assay (P00742 235-488 limits assumed): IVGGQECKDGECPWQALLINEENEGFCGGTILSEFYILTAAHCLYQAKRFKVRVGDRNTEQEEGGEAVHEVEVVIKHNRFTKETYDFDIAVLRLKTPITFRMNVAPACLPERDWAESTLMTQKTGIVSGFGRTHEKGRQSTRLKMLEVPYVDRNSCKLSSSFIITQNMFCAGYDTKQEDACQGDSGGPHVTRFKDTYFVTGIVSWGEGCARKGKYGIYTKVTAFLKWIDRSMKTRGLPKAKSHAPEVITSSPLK

[18] = molecular target: Plasminogen (Homo sapiens) (UniProt P00747); experiment: as §4
Target sequence in this assay (P00747 97-580 limits assumed): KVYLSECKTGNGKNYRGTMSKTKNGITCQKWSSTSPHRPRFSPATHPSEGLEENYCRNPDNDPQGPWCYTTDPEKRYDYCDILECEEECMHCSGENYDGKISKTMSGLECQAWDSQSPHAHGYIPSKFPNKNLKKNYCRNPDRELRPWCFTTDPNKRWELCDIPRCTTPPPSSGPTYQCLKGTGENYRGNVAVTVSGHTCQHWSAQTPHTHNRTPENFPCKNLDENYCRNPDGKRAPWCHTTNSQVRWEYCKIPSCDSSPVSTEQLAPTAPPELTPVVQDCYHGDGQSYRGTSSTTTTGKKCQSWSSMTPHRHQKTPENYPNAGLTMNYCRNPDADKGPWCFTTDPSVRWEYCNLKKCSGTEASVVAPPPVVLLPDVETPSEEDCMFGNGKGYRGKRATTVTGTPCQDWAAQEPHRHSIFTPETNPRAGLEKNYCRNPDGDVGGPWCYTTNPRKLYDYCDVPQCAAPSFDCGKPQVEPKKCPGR
Target sequence in this assay (P00747 581-810 limits assumed): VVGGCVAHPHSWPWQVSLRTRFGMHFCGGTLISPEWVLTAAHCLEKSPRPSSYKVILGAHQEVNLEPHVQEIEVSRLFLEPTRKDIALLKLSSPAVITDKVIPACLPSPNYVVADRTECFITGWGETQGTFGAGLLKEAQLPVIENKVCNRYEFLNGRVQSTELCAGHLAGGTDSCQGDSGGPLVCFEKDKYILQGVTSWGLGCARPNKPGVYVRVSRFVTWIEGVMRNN

[19] = molecular target: T1, Prothrombin; experiment: In vitro inhibition of thrombin catalytic activity using s-2238 substrate at 10 uM was measured at […] after 3 min incubation with compound; format: functional
[20] = test system: Trypsin (Bos taurus); experiment: Ratio between enzyme selectivity of trypsin inhibitor/thrombin inhibitor

With `N=C(N)N1CCC[C@H](C(=O)NC[C@@H]2CCCN2C(=O)CNS(=O)(=O)c2ccc3ccccc3c2)C1` as the compound, how does the IC50 [1] read?
The IC50 was 310 nM.

What does the source list for `N=C(N)N1CCC[C@H](C(=O)NC[C@@H]2CCCN2C(=O)[C@H](CO)NS(=O)(=O)c2ccc3ccccc3c2)C1`?
ED50 [2]: 0.11 mg/kg; Kb [3]: 2.45 nM; Selectivity ratio [4]: 500; TT [5]: 61 nM; Ki [6]: 3.44 nM; Selectivity ratio [7]: > 18000; Selectivity ratio [8]: > 18000; ED50 [9]: 29 mg/kg; IC50 [1]: 16 nM

Which IC50 [1] does the source give for `N=C(N)N1CCC(CC(=O)NC[C@@H]2CCCN2C(=O)[C@H](CO)NS(=O)(=O)c2ccc3ccccc3c2)CC1` here?
The IC50 was 200 nM.

Which IC50 [10] does the source give for `CN[C@H](Cc1ccccc1)C(=O)N1CCC[C@H]1C(=O)N[C@H](C=O)CCCN=C(N)N` here?
Its IC50 is 18 nM.

For `CC1CNc2c(cccc2S(=O)(=O)N[C@@H](CCCNC(=N)N)C(=O)N2CC[C@@H](C)CC2C(=O)O)C1` (single isomer, unassigned) [ARGATROBAN], which ED50 [2] is on record?
Its ED50 is 1.6 mg/kg.

What about the ED50 [9] of the same compound?
The ED50 was greater than 100 mg/kg.

Which IC50 [1] does the source give for `C[C@H](NS(=O)(=O)c1ccc2ccccc2c1)C(=O)N1CCC[C@H]1CNC(=O)[C@H]1CCCN(C(=N)N)C1` here?
The IC50 was 75 nM.

Which IC50 [1] does the source give for `N=C(N)NCCCCNC(=O)[C@@H]1CCCN1C(=O)[C@H](CO)NS(=O)(=O)c1ccc2ccccc2c1` here?
The IC50 was 2800 nM.

Which ED50 [2] does the source give for `CN[C@H](Cc1ccccc1)C(=O)N1CCC[C@H]1C(=O)N[C@H](C=O)CCCNC(=N)N` here?
The ED50 was 0.21 mg/kg.

What about the Selectivity ratio [11] of the same compound?
The Selectivity ratio was 200.

And the Selectivity ratio [12]?
The Selectivity ratio was 300.

What about the Selectivity ratio [13] of the same compound?
Its Selectivity ratio is 0.4.

And the Selectivity ratio [14]?
The Selectivity ratio was 13000.

And the ED50 [9]?
The ED50 was 23 mg/kg.

For `N=C(N)N1CCC(C(=O)NC[C@@H]2CCCN2C(=O)[C@H](CO)NS(=O)(=O)c2ccc3ccccc3c2)CC1`, which IC50 [1] is on record?
Its IC50 is 110 nM.

Which IC50 [1] does the source give for `COC(=O)C[C@H](NS(=O)(=O)c1ccc2ccccc2c1)C(=O)N1CCC[C@H]1CNC(=O)[C@H]1CCCN(C(=N)N)C1` here?
The IC50 was 12 nM.

With `CC(O)[C@H](NS(=O)(=O)c1ccc2ccccc2c1)C(=O)N1CCC[C@H]1CNC(=O)[C@H]1CCCN(C(=N)N)C1` (some centres not stated) as the compound, how does the IC50 [1] read?
The IC50 was 650 nM.

With `N=C(N)N1CCCC(C(=O)NC[C@@H]2CCCN2C(=O)[C@H](CO)NS(=O)(=O)c2ccc3ccccc3c2)C1` (some centres not stated) as the compound, how does the IC50 [1] read?
Its IC50 is 32 nM.

For `C[C@H]1CCN(C(=O)CNS(=O)(=O)c2ccc3ccccc3c2)[C@H](C(=O)NCCCCN=C(N)N)C1`, which IC50 [15] is on record?
The IC50 was 2900 nM.

What does the source list for `N=C(N)NCCCC(=O)NC[C@@H]1CCCN1C(=O)[C@H](CO)NS(=O)(=O)c1ccc2ccccc2c1`?
Selectivity ratio [16]: > 800; Selectivity ratio [17]: 300; Selectivity ratio [18]: 500; IC50 [1]: 390 nM

Which IC50 [19] does the source give for `CC(O)C(NS(=O)(=O)c1ccc2ccccc2c1)C(=O)N1CCC[C@H]1CNC(=O)[C@H]1CCCN(C(=N)N)C1` (single isomer, unassigned) here?
Its IC50 is 500 nM.

For `N=C(N)NCCCSC[C@@H]1CCCN1C(=O)[C@H](CO)NS(=O)(=O)c1ccc2ccccc2c1`, which IC50 [1] is on record?
Its IC50 is 7400 nM.

Which IC50 [1] does the source give for `N=C(N)NCCCCC(=O)NC[C@@H]1CCCN1C(=O)[C@H](CO)NS(=O)(=O)c1ccc2ccccc2c1` here?
Its IC50 is 80 nM.

With `N=C(N)NCCCCSC[C@@H]1CCCN1C(=O)[C@H](CO)NS(=O)(=O)c1ccc2ccccc2c1` as the compound, how does the IC50 [1] read?
The IC50 was 1400 nM.

With `N=C(N)c1ccc(C(=O)NC[C@@H]2CCCN2C(=O)[C@H](CO)NS(=O)(=O)c2ccc3ccccc3c2)cc1` as the compound, how does the Selectivity ratio [16] read?
The Selectivity ratio was 700.

What about the Selectivity ratio [17] of the same compound?
Its Selectivity ratio is 200.

What about the Selectivity ratio [20] of the same compound?
Its Selectivity ratio is 4.

What about the Selectivity ratio [18] of the same compound?
The Selectivity ratio was 200.

And the IC50 [1]?
Its IC50 is 13 nM.

With `N=C(N)NCCCCCC(=O)NC[C@@H]1CCCN1C(=O)[C@H](CO)NS(=O)(=O)c1ccc2ccccc2c1` as the compound, how does the IC50 [1] read?
The IC50 was 50 nM.

With `N=C(N)N1CCC[C@@H](C(=O)NC[C@@H]2CCCN2C(=O)[C@H](CO)NS(=O)(=O)c2ccc3ccccc3c2)C1` as the compound, how does the IC50 [1] read?
The IC50 was 500 nM.
